Experimental data as given in patent US8841325B2, “Immunomodulatory compounds for the restoration of vitamin D sensitivity in vitamin D resistant tumor cells” (Celgene Corporation, priority 2009, dated 2014).

Experiments:
Format in all cases: cell-based
[1] = test system: MCF-7 cells; experiment: Cell viability by neutral red assay, MCF-7
Procedure: Cells were seeded in 24 wells plates at a density of 10^4 cells per well and allowed to adhere for 24 hours. […] The drug was renewed every 2 days. Cell viability was then determined by neutral red assay, measuring absorbance at 550 nm.
(§1) After 6 days treatment, cells were seeded into 24 well plates at a density of 1×10^4 cells/wells. After 24 h, cells were treated with reagents or vehicle for up to six days. At the end of the incubation period, medium was removed and cells were incubated with neutral red solution (40 μg/ml in phenol red and serum free DMEM) for 2 h at 37° C. After removal of the neutral red solution, wells were rinsed once with 1 ml 4% formal saline containing 0.5% CaCl2. Plates were inverted on paper towel to drain and 200 μl of elution fluid (1% acetic acid in 50% ethanol) was added. Following incubation at room temperature for 30 min with gentle shaking, absorbance at 550 nm was determined

[2] = test system: MCF-12A cells; experiment: Cell growth by Sulphorhodamine B (SRB) assay, MCF-12A; settings: for effect on cell growth: single agent, Thalidomide 0.01-100 μM, CC-4047 and lenalidomide 0.001-10 μM, FIG. 6B
Procedure: (§2) Cells were seeded in 24 wells plates at a density of 10^4 cells per well and allowed to adhere for 24 hours. […] Each treatment was carried out for up to 7 days, but renewed every 2 days. Cell growth was then determined by Sulphorhodamine B (SRB) assay, measuring absorbance at 550 nm.
(§3) After 6 days treatment, cells were seeded in 24 well plates at a density of 1×10^4 cells/well. After 24 h cells were treated with reagents or vehicle for up to six days. Cells were treated for up to 6 days with log doses of Thalidomide (0.1 μM up to 100 μM), pomalidomide and lenalidomide (0 μM up to 10 μM). At the end of each experiment, cells were fixed to the bottom of the well by addition of ice-cold 50% w/v trichloroacetic acid (TCA) to give a final concentration of 10% TCA. Plates were incubated at 4° C. for 30 minutes and then washed with distilled water. Plates were allowed to air-dry at room temperature before staining with 0.4% w/v SRB in 1% v/v acetic acid and incubated for 15 minutes on a shaker. The plates were then extensively washed with 1% acetic acid to remove unbound dye and were again allowed to air-dry at room temperature. Incorporated dye was solubilised with 200 μl […] Tris base. 100 μl aliquots were transferred to a 96 well plate and absorbance at 550 nm was determined

[3] = test system: MCF-7 cells; experiment: Cell growth by Sulphorhodamine B (SRB) assay, MCF-7; settings: for effect on cell growth: single agent, Thalidomide 0.01-100 μM, CC-4047 and lenalidomide 0.001-10 μM, FIG. 6B
Procedure: as §2, §3

[4] = test system: MDA-MB-231 cells; experiment: Cell growth by Sulphorhodamine B (SRB) assay, MDA-MB-231
Procedure: (§4) Cells were seeded in 24 wells plates at a density of 10^4 cells per well and allowed to adhere for 24 hours. To determine the combination effects of the drugs, cells were treated with 100 nM 1,25 D3 and 10 nM 1-oxo-2-(2,6-dioxopiperidin-3-yl)-4-aminoisoindoline or 1,3-dioxo-2-(2,6-dioxopiperidin-3-3-yl)-4-aminoisoindoline. Each treatment was carried out for up to 7 days, but renewed every 2 days. Cell growth was then determined by Sulphorhodamine B (SRB) assay, measuring absorbance at 550 nm.
as §4, with “per wekk” for “per well”, “and varying doses of” for “and 10 nM”, “or 1,3-dioxo-2-(2,6-dioxopiperidin-3-yl)-4-aminoisoindoline.” for “or 1,3-dioxo-2-(2,6-dioxopiperidin-3-3-yl)-4-aminoisoindoline.”
as §3

[5] = test system: HBL-100 cells; experiment: Cell viability by neutral red assay, HBL-100; settings: up to 6 days
Procedure: as §1
In order to validate the previous results obtained in MDA-MB-231 cells, two other vitamin D resistant cell lines MCF-7/VD^R and HBL-100 cells, were investigated. First the effect of lenalidomide on these cells lines were investigated. To this end, cells were treated for up to 6 days with different concentrations of lenalidomide (0 μM up to 10 μM). Cell viability was measured by neutal red dye assay (FIG. 13).
(§5) More particularly, FIG. 13 illustrates the effects of lenalidomide treatment on MCF-7/VDR and HBL-100 viability. MCF-7/VDR and HBL-100 cells were treated for up to 6 days with different concentrations of lenalidomide (0 μM up to 10 μM). Cell viability was measured by neutral red dye assay. Results are mean of three independent experiments (each made in quadruplicate).
Cell viability was measured by neutral red dye assay (FIG. 14).
as §5, with “14” for “13”, “lenalidomide/1, 25-D3 co-treatment” for “lenalidomide treatment”, “(0.01” for “(0”, “1 μM) alone or in combination with different concentrations of 1, 25-D3 (0 for up to 1000 nM).” for “10 μM).”
To accomplish this, cells were treated for up to 6 days with different concentrations of a BCL-2 inhibitor, ABT-263 ([…]). Non-treated cells were used as a control. After 6 days of treatment, cell viability was measured by neutral red assay (FIG. 16). In the three cell lines, BCL-2 inhibition leads to cell death. The IC50 is almost equivalent in all cell lines (1 μM+/−0.2 μM).
More particularly, FIG. 16 illustrates the effects of BCL-2 inhibition on MCF-7VD^R and HBL-100 viability. MDA-MB-231, MCF-7/VD^R and HBL-100 cells were treated for up to 6 days with different concentrations of ABT-263 (0.2 up to 20 μM). Non-treated cells were used as a control. After 6 days of treatment, cell viability was measured by neutral red assay. Results are mean of three independent experiments (each made in quadruplicate).

[6] = 100 nM 1,25-D3 alone, up to 6 days, FIG. 7B
[7] = 1,25 D3 alone, read-out: dose giving IC50 inhibition
[8] = lenalidomide 0.01-1 μM alone or in combination with 1,25-D3 0-1000 nM, FIG. 14, p>0.05
[9] = up to 6 days, listed as lenalidomide

SMILES	inhibition of viability ([1]; 100 nM 1,25-D3 alone, up to 6 days, FIG. 7A) [%]	sensitivity of cell viability to vitamin D agent treatment ([1]; 1,25 D3 0-100 nM, 7 days, FIG. 1)	inhibition of growth [2, 6] [%]	IC50 [2, 7] [nM]	inhibition of growth [3, 6] [%]	IC50 [3, 7] [nM]	effect on cell growth ([4]; 100 nM 1,25-D3 or 1 μM IMiD alone, up to 6 days)	differences in viability [5, 8]	effect on cell viability ([1]; single agent, up to 6 days, Thalidomide 0.01-100 μM, CC-4047 and lenalidomide 0.001-10 μM, FIG. 6A)	effect on cell growth ([2]; up to 6 days)	effect on cell growth [2, 9]	effect on cell growth ([3]; up to 6 days)	effect on cell growth [3, 9]	inhibition at 10 µM ([4]; Homo sapiens, MDA-MB-231, 144 h, single agent, 10 μM lenalidomide (highest dose), up to 6 days) [%]	minimal concentration giving statistically significant inhibition of growth ([4]; in the presence of 100 nM 1,25 D3, up to 7 days, FIG. 3) [µM]	inhibition of growth ([4]; single agent, 10 μM lenalidomide (highest dose), up to 6 days) [%]	differences in viability ([5]; lenalidomide 0 μM up to 10 μM, FIG. 13, p>0.05)
C=C1/C(=C\C=C2/CCC[C@]3(C)[C@@H]([C@H](C)CCCC(C)(C)O)CC[C@@H]23)C[C@@H](O)C[C@@H]1O [1,25-D3, 1α,25-dihydroxyvitamin D3]	40	showed sensitivity	55	100	30	100	no effect	No significant differences	–	–	–	–	–	–	–	–	–
Nc1cccc2c1CN(C1CCC(=O)NC1=O)C2=O (stereo not drawn) [Lenalidomide, 1-oxo-2-(2,6-dioxopiperidin-3-yl)-4-aminoisoindoline]	–	–	–	–	–	–	–	No significant differences	do not Affect	do not Affect	no effect	do not Affect	no effect	28	1	20	No significant differences
